Experimental findings from patent US11091511B2, “Panaxdiol-type ginsenoside derivative, preparation method therefor and use thereof” (ARMY MEDICAL UNIVERSITY, priority 2016, dated 2021) are described below.

Series [1] deals with apoE−/− mice. Kind of series: Blood lipids (LDL-C, HDL-C) in apoE-/- mice on high-fat diet. Conditions: apoE-/- mice serum, intragastric 15 weeks, compounds 30 mg/(kg·d), simvastatin 10 mg/(kg·d), x ± s; for HDL-C: n = 5, saline control 3.74 ± 0.62; for LDL-C: n = 5, saline control 7.33 ± 1.03. The series is classed as in vivo, mouse. The text has this:
The effects of the compounds prepared in Examples 1-30 of the present invention on the percentages of areas of atherosclerotic plaque formation to the area of the entire artery in apoE−/− mice with a high-fat diet and the levels of low-density lipoprotein cholesterol and the levels of high-density lipoprotein, the specific steps are as follows:
1. animals: 160 ten-week-old, healthy and clean-grade apoE−/− mice (purchased from Peking University Experimental Animal Center), males, weight: 22-25 g, were housed in separate cages in a sterile laminar feeding room and fed freely. The mice were fed by a high-fat diet (conventional feed+0.15% cholesterol+21% lard) for 25 weeks, the room temperature was kept at 24° C., relative humidity: 50%, illumination time 7:30-19:30.
2. Grouping, administration method:
after 10 weeks of feeding, the animals were divided into the following 32 groups (n=5) by weight in a balanced and random manner, and killed 15 weeks after administration.
Normal saline control group: normal saline, intragastric administration.
Positive control group: simvastatin 10 mg/(kg·d), intragastric administration.
The compound groups prepared in Examples 1-30 of the present invention (30 groups in total): each was intragastric administered 30 mg/(kg·d).
(2) Determination of the levels of total cholesterol (TC), low-density cholesterol lipoprotein (LDL-C) and high-density lipoprotein cholesterol (HDL-C): using ROCHE 7060 automatic biochemical analyzer for the determination.
Data were expressed as x±s, and SPSS 10.0 line single-factor analysis of variance was performed among groups, a significant difference was indicated when p<0.05.

The subject of another series is TNF-α. Description: Local TNF-α level in the arteries of apoE-/- mice (Millipore liquid phase chip). The series is classed as in vivo, mouse. The settings on record: high-fat diet, intragastric 15 weeks, compounds 30 mg/(kg·d), simvastatin 10 mg/(kg·d), x ± s, n = 5, saline control 25.58 ± 6.44. The source says: (§1) The effects of the compounds prepared in Examples 1-30 of the present invention on the percentages of areas of atherosclerotic plaque formation to the area of the entire artery in apoE−/− mice with a high-fat diet and the levels of low-density lipoprotein cholesterol and the levels of high-density lipoprotein, the specific steps are as follows: 1. animals: 160 ten-week-old, healthy and clean-grade apoE−/− mice (purchased from Peking University Experimental Animal Center), males, weight: 22-25 g, were housed in separate cages in a sterile laminar feeding room and fed freely. The mice were fed by a high-fat diet (conventional feed+0.15% cholesterol+21% lard) for 25 weeks, the room temperature was kept at 24° C., relative humidity: 50%, illumination time 7:30-19:30. 2. Grouping, administration method: after 10 weeks of feeding, the animals were divided into the following 32 groups (n=5) by weight in a balanced and random manner, and killed 15 weeks after administration. Normal saline control group: normal saline, intragastric administration. Positive control group: simvastatin 10 mg/(kg·d), intragastric administration. The compound groups prepared in Examples 1-30 of the present invention (30 groups in total): each was intragastric administered 30 mg/(kg·d). (3) Determination of TNF-α level: Millipore liquid phase chip method was used for the determination (Mcytomag-70K-3, Mouse Cytokine/Chemokine Magnetic Bead Panel). Data were expressed as x±s, and SPSS 10.0 line single-factor analysis of variance was performed among groups, a significant difference was indicated when p<0.05.

Series [2] has as its system apoE−/− mice. Description: Atherosclerotic plaque area to total aortic area in apoE-/- mice on high-fat diet (Sudan IV staining). The series is classed as in vivo, mouse. Conditions: intragastric 15 weeks, compounds 30 mg/(kg·d), simvastatin 10 mg/(kg·d), x ± s, n = 5, saline control 14.67 ± 3.58.
Source text: as §1, with “(1) Analysis” for “(3) Determination”, “the area of atherosclerotic plaque and its percentage to total area: after the animals were killed, the aortas were separated, from the roots of the aortas to the terminal bifurcations of the abdominal aortas. After formalin fixation, the aortas were stained with Sudan IV, the red stained parts were the areas of atherosclerotic lesions. The percentage of the area of the lesion area to total area” for “TNF-α level: Millipore liquid phase chip method”, “calculated using Image Pro Plus 5.0 software.” for “used for the determination (Mcytomag-70K-3, Mouse Cytokine/Chemokine Magnetic Bead Panel).”

The subject of a further series is RAW264.7 cells. Description: RAW264.7 cell survival rate by CCK8 method. The series is classed as cell-based, mouse. The settings on record: compound 10 prnol/L, 0.1% DMSO, CCK8, x ± s, n = 3, normal saline control = 1. How it is done:
In order to further verify the toxicities of the compounds prepared in Examples 1-30 of the present invention, the mouse macrophage cell line RAW264.7 was cultured, and the compounds prepared in Examples 1-30 of the invention were prepared to a concentration of […] using culture medium, wherein the solvent was normal saline, the co-solvent was dimethyl sulfoxide (DMSO, the final concentratoin was 0.1%), and a 0.1% DMSO saline control group was provided. The cell survival rate was determined by CCK8 method. The data were expressed as x±s. SPSS 10.0 line single-factor analysis of variance was performed among groups. The difference was significant when p<0.05.
(Tetrazolium dyes change colour on reduction, which living cells bring about.)

Series [3] has as its system RAW264.7 cell-derived foam cells. Kind of series: Formation of RAW264.7 cell-derived foam cells (ox-LDL, oil red O, absorbance 490 nm). The series is classed as cell-based, mouse. The settings on record: 48 hours, model group = 100%, x ± s, n = 3. The protocol: The effects of the compounds prepared in Examples 1-30 of the present invention on the formation of RAW264.7 cell-derived foam cells, the specific steps are as follows:
1. Cell culture and foam cell model establishment:
RAW264.7 cells were cultured in DMEM culture medium with high glucose level (GIBCO) to a cell concentration of 1×10^6, planted in a 6-well plate, and 60 mg/L of ox-LDL (oxidized modified low-density lipoprotein, Peking Union Medical College) was added, foam cells were obtained after 48 hours of incubation.
2. Grouping and index detection:
The obtained foam cells were divided into 61 groups, 3 well plates were included in one group. After the treatment by adding the drugs (100 μL/well) for 48 hours, the medium was discarded, and after oil red 0 staining, the excess amount of oil red 0 was washed away. The cells were dissolved in isopropanol and the absorbance values were measured at 490 nm. The OD value of the model group was 100%, and the OD value of each group corrected by the number of cells was compared with the model group to obtain the ratio of intracellular lipid content. The larger the value, the more intracellular lipids, the higher the degree of formation of foam cells.
Normal saline control group: normal saline
Low dose groups of the compounds prepared in Examples 1-30 of the present invention:
10 μmol/L (solvents were normal saline).
High dose groups of compounds prepared in Examples 1-30 of the present invention: 30 μmol/L (solvents were normal saline).
Data were expressed as x±s, and SPSS 10.0 line single-factor analysis of variance was performed amoung groups, a significant difference was indicated when p<0.05.

Structures are written as SMILES. Marks after values point to notes of the source that are not given here.

In the case of `CC(=O)OC[C@H]1O[C@H](O[C@@](C)(CCC=C(C)C)C2CC[C@]3(C)[C@@H]2C(OC(C)=O)CC2[C@@]4(C)CC[C@H](OC(C)=O)C(C)(C)C4CC[C@]23C)[C@H](OC(C)=O)[C@@H](OC(C)=O)[C@@H]1OC(C)=O` (stereo partly shown) [Compound 1], in the series on apoE−/− mice [1], the HDL-C is listed as 4.55 ± 0.86 ^a mmol/L and the LDL-C is given as 6.39 ± 1.09 mmol/L. The “TNF-α level (ng/g)” value with TNF-α is recorded as 19.41 ± 3.81 ^a ng/g. For the same compound, the “Plaque area/total aorta area (%)” value with apoE−/− mice [2] is recorded as 10.65 ± 2.62 ^a %. In addition, the “Cell Survival Rate” value with RAW264.7 cells was 0.65 ± 0.07 ^a. Also, the “Foam cell formation (%)” value in series [3] (dose 10 μmol/L) is reported as 83 ± 12%. The “Foam cell formation (%)” value in series [3] (dose 30 μmol/L) is reported as 65 ± 18 ^a %.

Regarding `CC(=O)OC[C@H]1O[C@H](O[C@@](C)(CCC2OC2(C)C)C2CC[C@]3(C)[C@@H]2C(OC(C)=O)CC2[C@@]4(C)CC[C@H](OC(C)=O)C(C)(C)C4CC[C@]23C)[C@H](OC(C)=O)[C@@H](OC(C)=O)[C@@H]1OC(C)=O` (stereo partly shown) [Compound 2], in the series with apoE−/− mice [1], the HDL-C is given as 5.47 ± 0.91 ^a mmol/L and the LDL-C is 5.56 ± 1.24 ^a mmol/L. The “TNF-α level (ng/g)” value in the series on TNF-α is reported as 13.24 ± 3.71 ^a ng/g. In addition, the “Plaque area/total aorta area (%)” value in the series on apoE−/− mice [2] was 8.27 ± 2.54 ^a %. Further, the “Cell Survival Rate” value in the series with RAW264.7 cells is given as 0.51 ± 0.08 ^a. Moreover, the “Foam cell formation (%)” value in series [3] (dose 10 μmol/L) is given as 70 ± 25 ^a %. Also, the “Foam cell formation (%)” value in series [3] (dose 30 μmol/L) came out at 64 ± 19%.

As to `CC(=O)OC[C@H]1O[C@H](O[C@@](C)(CCC=O)C2CC[C@]3(C)[C@@H]2C(OC(C)=O)CC2[C@@]4(C)CC[C@H](OC(C)=O)C(C)(C)C4CC[C@]23C)[C@H](OC(C)=O)[C@@H](OC(C)=O)[C@@H]1OC(C)=O` (stereo partly shown) [Compound 3], in the series on apoE−/− mice [1], the HDL-C is reported as 4.97 ± 0.95 ^a mmol/L and the LDL-C turned out to be 6.12 ± 1.28 mmol/L. In addition, the “TNF-α level (ng/g)” value in the series with TNF-α is given as 16.68 ± 4.98 ^a ng/g. In the series on apoE−/− mice [2], the “Plaque area/total aorta area (%)” value was 9.74 ± 3.19 ^a %. Besides, the “Cell Survival Rate” value with RAW264.7 cells was 0.42 ± 0.03 ^a. The “Foam cell formation (%)” value in series [3] (dose 10 μmol/L) is 85 ± 20%. For the same compound, the “Foam cell formation (%)” value in series [3] (dose 30 μmol/L) is 72 ± 13 ^a %.

Take `COC(=O)[C@H](CC(C)C)NCCC[C@](C)(O[C@H]1O[C@H](COC(C)=O)[C@@H](OC(C)=O)[C@H](OC(C)=O)[C@H]1OC(C)=O)C1CC[C@]2(C)[C@@H]1C(OC(C)=O)CC1[C@@]3(C)CC[C@H](OC(C)=O)C(C)(C)C3CC[C@]12C` (stereo partly shown) [Compound 4]: in the series on apoE−/− mice [1], the HDL-C is reported as 5.48 ± 0.61 ^a mmol/L and the LDL-C is reported as 4.62 ± 1.58 ^a mmol/L. Further, the “TNF-α level (ng/g)” value in the series on TNF-α is given as 11.04 ± 3.68 ^a ng/g. In the series with apoE−/− mice [2], the “Plaque area/total aorta area (%)” value is listed as 9.52 ± 4.21 ^a %. Further, in the series on RAW264.7 cells, the “Cell Survival Rate” value is 0.84 ± 0.02. Further, the “Foam cell formation (%)” value in series [3] (dose 10 μmol/L) is given as 74 ± 15 ^a %. In addition, the “Foam cell formation (%)” value in series [3] (dose 30 μmol/L) is reported as 54 ± 12 ^a %.

For `COC(=O)[C@@H](NCCC[C@](C)(O[C@H]1O[C@H](COC(C)=O)[C@@H](OC(C)=O)[C@H](OC(C)=O)[C@H]1OC(C)=O)C1CC[C@]2(C)[C@@H]1C(OC(C)=O)CC1[C@@]3(C)CC[C@H](OC(C)=O)C(C)(C)C3CC[C@]12C)C(C)C` (stereo partly shown) [Compound 5], in the series on apoE−/− mice [1], the HDL-C was 5.21 ± 0.73 ^a mmol/L and the LDL-C is recorded as 5.58 ± 1.89 ^a mmol/L. Also, the “TNF-α level (ng/g)” value with TNF-α is recorded as 17.73 ± 4.87 ^a ng/g. In the series with apoE−/− mice [2], the “Plaque area/total aorta area (%)” value is recorded as 10.29 ± 2.67 ^a %. Besides, the “Cell Survival Rate” value in the series with RAW264.7 cells was found to be 0.87 ± 0.08. In addition, the “Foam cell formation (%)” value in series [3] (dose 10 μmol/L) is 77 ± 18 ^a %. The “Foam cell formation (%)” value in series [3] (dose 30 μmol/L) is 62 ± 13 ^a %.

On to `COC(=O)[C@H](NCCC[C@](C)(O[C@H]1O[C@H](COC(C)=O)[C@@H](OC(C)=O)[C@H](OC(C)=O)[C@H]1OC(C)=O)C1CC[C@]2(C)[C@@H]1C(OC(C)=O)CC1[C@@]3(C)CC[C@H](OC(C)=O)C(C)(C)C3CC[C@]12C)[C@@H](C)O` (stereo partly shown) [Compound 6], for which, in the series on apoE−/− mice [1], the HDL-C is on record as 5.51 ± 0.94 ^a mmol/L and the LDL-C stood at 6.04 ± 1.07 mmol/L. Further, the “TNF-α level (ng/g)” value in the series on TNF-α was 11.35 ± 4.97 ^a ng/g. Moreover, the “Plaque area/total aorta area (%)” value in the series with apoE−/− mice [2] was 8.16 ± 2.83 ^a %. Besides, the “Cell Survival Rate” value in the series with RAW264.7 cells is 0.83 ± 0.09. Also, the “Foam cell formation (%)” value in series [3] (dose 10 μmol/L) is 73 ± 16 ^a %. The “Foam cell formation (%)” value in series [3] (dose 30 μmol/L) is listed as 48 ± 14 ^a %.

Consider `CCC(C)(C)C(=O)O[C@H]1C[C@@H](C)C=C2C=C[C@H](C)[C@H](CC[C@@H]3C[C@@H](O)CC(=O)O3)[C@H]21` [Simvastatin, simvastatin, reference compound], for which, in the series on apoE−/− mice [1], the HDL-C is 3.69 ± 0.72 ^a mmol/L and the LDL-C is 2.75 ± 1.89 ^a mmol/L. The “TNF-α level (ng/g)” value with TNF-α is listed as 14.84 ± 3.22 ^a ng/g. Besides, the “Plaque area/total aorta area (%)” value with apoE−/− mice [2] is 7.95 ± 2.03 ^a %.
